Experimental data reported in US20220288057A1, “CONJOINT THERAPY FOR TREATING SEIZURE DISORDERS” (XENON PHARMACEUTICALS INC., priority 2021, published 2022).
Where two headings read alike, the source gives them in different places. Values belong to the compound of their own block, whether it stands above or below them.

Tests used:
[1] = test system: tonic hindlimb seizure following corneal stimulation in CF-1 mice; assay: Mouse maximal electroshock (MES) assay, 60 Hz 50 mA corneal stimulation; format: in vivo
Procedure: The interaction of Compound A with other ASMs was evaluated after oral dosing in the mouse maximal electroshock (MES) assay to determine whether some combinations were favorable or unfavorable. Efficacy was quantified by calculating the fraction of animals with a tonic hindlimb seizure following corneal stimulation. Compound Preparation: Compound A was initially solubilized in DMSO. This solution was then added into a 0.5% methyl cellulose solution to create a more even and less aggregated compound suspension. Serial dilutions were prepared from the tube with the highest concentration of Compound A and the compound suspensions were further vortexed prior to animal dosing. The final concentration of DMSO was 5%, an amount with no apparent toxicity or neuroprotection in the MES assay. […] Animals: Adult male CF-1 albino mice (25-35 g) purchased from Harlan-Envigo were used. The mice were housed four per cage and had access to filtered water and chow ad libidum, throughout the experiment. MES Assay: Compounds were administered orally by gavage before testing unless indicated otherwise. During MES testing, a 60-Hz alternating current (50 mA) was delivered for 0.2 seconds through corneal electrodes to the mice. A drop of 0.5% Alcaine solution was placed on the eye prior to current delivery. The electrodes were subsequently placed gently onto the eyes of the animal and the electrical shock was initiated by triggering through a foot-pedal activator. The animals were restrained by hand and gently released as the shock was delivered and the seizure commenced. Animals were monitored for hind limb tonic extension as the end point for this test. Statistical analysis: All statistics were calculated using Prism version 7 software (Graphpad Software). The method used for each experiment is indicated in the results section. Concentration-response curves were calculated as best fits to the equation […] where X was the log of plasma concentration. Unless indicated otherwise, bottom was constrained to be 0. Top was constrained to be the value determined experimentally by vehicle control measurements. Compound A Dose Response: […]

MES assay = conditions: Barton et al. 2001; cited from earlier work
[2] = Plasma and brain concentrations in 6 Hz studies (LC-MS/MS); format: in vivo, mouse; conditions: intraperitoneal
Procedure: Sample Collection and Preparation: Mice were anesthetized by isoflurane inhalation (TECH-018) until they reached a surgical plane of anesthesia. Then a syringe (1 mL syringe with a 22 gauge needle) was inserted under the sternum into the heart (TECH-031). Approximately 0.5 mL of blood was collected, deposited into a K2EDTA tube, and stored on ice. Animals were then euthanized by cervical dislocation (TECH-018). Brains were removed, placed into a pre-weighed vial, and snap frozen on dry ice. At the end of the sample collection, blood was centrifuged at 4000 rpm for 10 minutes at 4° C., and the plasma pipetted into a labeled tube. All samples were stored in a −80° C. freezer until bioanalysis (8 days after sample collection for Studies 3A and 3B; 20 days after sample collection for Study 3C).
Plasma and Tissue Sample Analysis: Bead mill polypropylene tubes containing weighed brain tissues were thawed at room temperature and 3 mL of homogenization solvent (water:acetonitrile (1:1, v:v)) was added. The tubes were placed in the Bead Mill Homogenizer (Bead Ruptor Elite Model, Omni International) and shaken at a velocity of 3.70 m/s for a single cycle lasting 30 seconds. The homogenized tube was centrifuged at 4000 rpm for 20 minutes, the supernatant was transferred to a 1.5 mL Eppendorf tube, and stored frozen at −80° C. until analysis. All samples including plasma and brain homogenate extracts (including calibration and quality control (QC) samples prepared in K2EDTA rat plasma), were extracted by protein precipitation. […] The samples in the 1.5 mL tubes were vortex mixed and then centrifuged for 20 minutes at 13,000 rpm. Fifty microliters of the supernatant was mixed with 150 μL of water/acetonitrile (1:1) in a 96 well plate which was centrifuged post mixing for 20 minutes at 4000 rpm, and was then ready for analysis by liquid chromatography tandem mass spectrometry (LC-MS/MS).
Samples were analyzed by a research-grade LC-MS/MS method as follows: […]

[3] = test system: 6 Hz psychomotor seizures in CF-1 mice; assay: Mouse 6 Hz psychomotor seizure assay (34 milliampere, 3 s); format: in vivo; conditions: for Fraction Seizing: Levetiracetam 300 mg/kg IP 1 h alone
Procedure: It was evaluated whether the combination of both compounds is favorable or unfavorable for efficacy by dosing Compound A and Levetiracetam alone and in combination, each at a dose that produces sub-maximal efficacy on its own. […] Plasma and brain samples were analyzed to gain an understanding of how the combination of Compound A and Levetiracetam may affect pharmacokinetics and pharmacodynamics. […] 6 Hz Psychomotor Seizure Assay: […] The animal was then securely restrained and a pair of electrodes was applied to the eyes (Electro Convulsive Therapy Unit 57800, Ugo Basile). […] Data Processing and Analysis: Statistical data analysis was performed using GraphPad Prism (version 8.2.1). Dose-response data was analyzed using a Kruskal-Wallis test, followed by Dunn's multiple comparisons. […] Dose- and concentration-response curves were generated using the Hill Langmuir equation: […]

concentration at 1 h ([2]; CF-1, mouse, brain, 300 mg/kg, Study 3B, Levetiracetam 300 mg/kg IP 1 h alone, read-out: Brain): 861 ± 120 µM
concentration at 1 h ([2]; CF-1, mouse, brain, Study 3C, analyte Levetiracetam, 300 mg/kg IP + Compound A 4 mg/kg PO, read-out: Brain): 1100 ± 265 µM
concentration at 1 h ([2]; CF-1, mouse, plasma, 300 mg/kg, Study 3B, Levetiracetam 300 mg/kg IP 1 h alone, read-out: Plasma): 1500 ± 320 µM
concentration at 1 h ([2]; mouse, brain, 300 mg/kg, Studies 3B+3C combined, Levetiracetam 300 mg/kg IP 1 h alone, read-out: Brain): 996 µM
concentration at 1 h ([2]; mouse, brain, 300 mg/kg, Study 3B, Levetiracetam 300 mg/kg IP 1 h alone, read-out: Brain): 861 ± 120 µM
concentration at 1 h ([2]; mouse, brain, Studies 3B+3C combined, analyte Levetiracetam, 300 mg/kg IP + Compound A 4 mg/kg PO, read-out: Brain): 1050 µM
concentration at 1 h ([2]; mouse, brain, Study 3B, analyte Levetiracetam, 300 mg/kg IP + Compound A 4 mg/kg PO, read-out: Brain): 1010 µM
concentration at 1 h ([2]; mouse, brain, Study 3C, analyte Levetiracetam, 300 mg/kg IP + Compound A 4 mg/kg PO, read-out: Brain): 1100 µM
concentration at 1 h ([2]; mouse, plasma, 300 mg/kg, Studies 3B+3C combined, Levetiracetam 300 mg/kg IP 1 h alone, read-out: Plasma): 1640 µM
concentration at 1 h ([2]; mouse, plasma, 300 mg/kg, Study 3B, Levetiracetam 300 mg/kg IP 1 h alone, read-out: Plasma): 1500 ± 320 µM
concentration at 1 h ([2]; mouse, plasma, Studies 3B+3C combined, analyte Levetiracetam, 300 mg/kg IP + Compound A 4 mg/kg PO, read-out: Plasma): 1730 µM
concentration at 1 h ([2]; mouse, plasma, Study 3B, analyte Levetiracetam, 300 mg/kg IP + Compound A 4 mg/kg PO, read-out: Plasma): 1350 µM
concentration at 1 h ([2]; mouse, plasma, Study 3C, analyte Levetiracetam, 300 mg/kg IP + Compound A 4 mg/kg PO, read-out: Plasma): 2160 µM
SMILES: CC[C@@H](C(N)=O)N1CCCC1=O [Levetiracetam, reference compound]
fraction of mice without tonic seizures ([1]; Levetiracetam 120 mg/kg IP 2 h): 0/6
fraction of mice without tonic seizures ([1]; Levetiracetam 150 mg/kg IP 2 h): 2/8
ED50 (MES assay): > 500 mg/kg
average efficacy in previous experiments ([3]; Levetiracetam 300 mg/kg IP 1 h, 34 milliampere 6 Hz): 35%
Fraction Seizing ([3]; Studies 3B+3C combined): 14/16
Fraction Seizing ([3]; Study 3B): 8/8
Fraction Seizing ([3]; Study 3C): 6/8
animals protected from seizing ([3]; Study 3C, Levetiracetam 300 mg/kg IP alone): 2/8

SMILES: O=C1NC(=O)C(c2ccccc2)(c2ccccc2)N1 [Phenytoin, reference compound]
maximum % seizures of fitted curve, reflecting efficacy of Phenytoin alone ([1]; Phenytoin 2 mg/kg): 75%
fraction of animals without tonic seizures ([1]; Phenytoin 2 mg/kg IP 2 h alone): 6/24

SMILES: CCCC(CCC)C(=O)O [Valproic Acid, reference compound]
IC50 ([1]; Mus musculus, ip, read-out: IC50 for Valproic Acid (plasma level, inhibition of tonic seizures)): 1440 µM
number of mice without tonic seizures/total ([1]; Vehicle PO + Valproic Acid 56 mg/kg IP 0.5 h): 1/7
number of mice without tonic seizures/total ([1]; Vehicle PO + Valproic Acid 100 mg/kg IP 0.5 h): 5/15
number of mice without tonic seizures/total ([1]; Vehicle+Valproic Acid at 56 mg/kg as printed, comparator of the 30 mg/kg combination): 0/8
decrease of IC50 for Valproic Acid ([1]; combined with 1 mg/kg Compound A vs alone): 2.37 fold
